# Biological target: EGFR (Balb/c mice) (UniProt P00533)
# Settings: balb/c3t3
row,Structure (SMILES),IC50 [nM]
1,O=C(Nc1ccc(-c2cc3c(Nc4cccc(Cl)c4)ncnc3[nH]2)cc1)c1cccs1,1 to 100
2,CC(C)COC(=O)Nc1ccc(-c2cc3c(Nc4cccc(Cl)c4)ncnc3[nH]2)cc1,1 to 100
3,Oc1ccc(CNCc2cc3c(Nc4cccc(Cl)c4)ncnc3[nH]2)cc1,1 to 100
4,Clc1cccc(Nc2ncnc3[nH]c(-c4ccc(N=CN5CCOCC5)cc4)cc23)c1,1 to 100
5,CN1CCN(C(=O)c2cc3c(Nc4cccc(Cl)c4)ncnc3[nH]2)CC1,1 to 100
6,CCNC(=O)Nc1cccc(-c2cc3c(Nc4cccc(Cl)c4)ncnc3[nH]2)c1,1 to 100
7,Clc1cccc(Nc2ncnc3[nH]c(CN4CCOCC4)cc23)c1,1 to 100
8,Clc1cccc(Nc2ncnc3[nH]c(-c4nccs4)cc23)c1,1 to 100
9,COc1cc(-c2cc3c(Nc4ccccc4)ncnc3[nH]2)ccc1O,1 to 100
10,O=C(Nc1ccc(-c2cc3c(Nc4cccc(Cl)c4)ncnc3[nH]2)cc1)c1ccco1,1 to 100
11,CNC(=S)Nc1cccc(-c2cc3c(Nc4cccc(Cl)c4)ncnc3[nH]2)c1,1 to 100
12,CC(C)S(=O)(=O)Nc1cccc(-c2cc3c(N[C@H](C)c4ccccc4)ncnc3[nH]2)c1,1 to 100
13,OCc1ccc(-c2cc3c(Nc4cccc(Cl)c4)ncnc3[nH]2)cc1,1 to 100
14,Clc1cccc(Nc2ncnc3[nH]c(-c4nnn[nH]4)cc23)c1,1 to 100
15,C[C@@H](Nc1ncnc2[nH]c(-c3cccc(NS(C)(=O)=O)c3)cc12)c1ccccc1,1 to 100
16,Cn1nnc(-c2cc3c(Nc4cccc(Cl)c4)ncnc3[nH]2)n1.Cn1nnnc1-c1cc2c(Nc3cccc(Cl)c3)ncnc2[nH]1,1 to 100
17,CCc1csc(-c2cc3c(Nc4cccc(Cl)c4)ncnc3[nH]2)n1,1 to 100

row,Structure (SMILES),IC50 [nM]
1,CCNC(=O)Nc1ccc(-c2cc3c(Nc4cccc(Cl)c4)ncnc3[nH]2)cc1,1 to 100
2,CCNC(=S)Nc1ccc(-c2cc3c(Nc4cccc(Cl)c4)ncnc3[nH]2)cc1,1 to 100
3,CS(=O)(=O)Nc1ccc(-c2cc3c(Nc4cccc(Cl)c4)ncnc3[nH]2)cc1,1 to 100
4,COc1ccc(CNCc2cc3c(Nc4cccc(Cl)c4)ncnc3[nH]2)cc1,1 to 100
5,C[C@@H](Nc1ncnc2[nH]c(-c3ccc(N=CN(C)C)cc3)cc12)c1ccccc1,1 to 100
6,CCOC(=O)Nc1ccc(-c2cc3c(Nc4cccc(Cl)c4)ncnc3[nH]2)cc1,1 to 100
7,ON=Cc1cc2c(Nc3cccc(Cl)c3)ncnc2[nH]1,1 to 100
8,CNC(=S)Nc1ccc(-c2cc3c(N[C@H](C)c4ccccc4)ncnc3[nH]2)cc1,1 to 100
9,Cc1nc(-c2cc3c(Nc4cccc(Cl)c4)ncnc3[nH]2)sc1C,1 to 100
10,CCS(=O)(=O)Nc1ccc(-c2cc3c(N[C@H](C)c4ccccc4)ncnc3[nH]2)cc1,1 to 100
11,Clc1cccc(Nc2ncnc3[nH]c(-c4ccc(N=CN5CCCCC5)cc4)cc23)c1,1 to 100
12,CCS(=O)(=O)Nc1cccc(-c2cc3c(Nc4cccc(Cl)c4)ncnc3[nH]2)c1,1 to 100
13,CON=Cc1cc2c(Nc3cccc(Cl)c3)ncnc2[nH]1,1 to 100
14,CCNC(=O)Nc1cccc(-c2cc3c(N[C@H](C)c4ccccc4)ncnc3[nH]2)c1,1 to 100
15,O=C(c1ccc(-c2cc3c(Nc4cccc(Cl)c4)ncnc3[nH]2)cc1)N1CCOCC1,1 to 100
16,CCN(C=Nc1cccc(-c2cc3c(Nc4cccc(Cl)c4)ncnc3[nH]2)c1)CC,1 to 100

# Biological target: EGFR (UniProt P00533)
# Sequence (P00533 whole entry, looked up): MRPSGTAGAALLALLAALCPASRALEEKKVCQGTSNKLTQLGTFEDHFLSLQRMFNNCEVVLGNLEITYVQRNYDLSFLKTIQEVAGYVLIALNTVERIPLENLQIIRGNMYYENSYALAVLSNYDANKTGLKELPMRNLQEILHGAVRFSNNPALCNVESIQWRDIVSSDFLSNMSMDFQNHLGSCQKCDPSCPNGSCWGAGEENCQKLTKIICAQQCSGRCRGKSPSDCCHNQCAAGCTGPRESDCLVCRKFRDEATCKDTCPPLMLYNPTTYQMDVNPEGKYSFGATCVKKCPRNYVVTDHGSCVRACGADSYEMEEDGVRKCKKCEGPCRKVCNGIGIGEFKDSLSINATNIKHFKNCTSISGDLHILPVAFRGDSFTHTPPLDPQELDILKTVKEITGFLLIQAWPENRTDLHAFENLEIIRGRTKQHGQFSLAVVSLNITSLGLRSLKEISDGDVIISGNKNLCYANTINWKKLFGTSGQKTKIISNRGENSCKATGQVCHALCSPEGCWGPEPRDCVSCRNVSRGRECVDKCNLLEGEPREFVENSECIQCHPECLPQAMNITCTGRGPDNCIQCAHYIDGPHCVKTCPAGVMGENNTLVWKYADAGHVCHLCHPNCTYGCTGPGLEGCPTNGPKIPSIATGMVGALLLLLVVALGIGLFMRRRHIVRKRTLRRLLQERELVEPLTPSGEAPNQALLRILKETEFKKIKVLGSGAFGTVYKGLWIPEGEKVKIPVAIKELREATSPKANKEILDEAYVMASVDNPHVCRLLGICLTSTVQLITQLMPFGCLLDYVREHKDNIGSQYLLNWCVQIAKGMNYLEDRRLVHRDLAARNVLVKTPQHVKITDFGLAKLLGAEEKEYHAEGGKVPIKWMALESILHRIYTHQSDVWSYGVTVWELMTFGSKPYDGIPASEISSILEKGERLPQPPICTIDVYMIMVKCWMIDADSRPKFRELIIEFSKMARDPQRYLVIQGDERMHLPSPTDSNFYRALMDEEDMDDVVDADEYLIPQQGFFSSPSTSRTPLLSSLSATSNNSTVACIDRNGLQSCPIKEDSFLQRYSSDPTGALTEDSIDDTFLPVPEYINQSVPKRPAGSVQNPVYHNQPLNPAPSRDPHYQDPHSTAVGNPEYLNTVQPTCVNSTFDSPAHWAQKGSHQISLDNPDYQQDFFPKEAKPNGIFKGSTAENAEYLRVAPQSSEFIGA
# Settings: not given
row,Structure (SMILES),IC50 [nM]
1,Clc1cccc(Nc2ncnc3[nH]c(-c4ccc(NCc5ccccc5)cc4)cc23)c1,0.5 to 1000
2,C[C@@H](Nc1ncnc2[nH]c(-c3ccc(NS(C)(=O)=O)cc3)cc12)c1ccccc1,0.5 to 1000
3,COc1ccc(-c2csc(-c3cc4c(Nc5cccc(Cl)c5)ncnc4[nH]3)n2)cc1,0.5 to 1000
4,CN(C)C=Nc1ccc(-c2cc3c(Nc4cccc(Cl)c4)ncnc3[nH]2)cc1,0.5 to 1000
5,CN1CCN(C(=O)c2ccc(-c3cc4c(Nc5cccc(Cl)c5)ncnc4[nH]3)cc2)CC1,0.5 to 1000
6,C[C@@H](Nc1ncnc2[nH]c(-c3cccc(NCc4ccccc4)c3)cc12)c1ccccc1,0.5 to 1000
7,OCCN(CCO)Cc1cc2c(Nc3cccc(Cl)c3)ncnc2[nH]1,0.5 to 1000
8,COc1cc(-c2cc3c(Nc4cccc(Cl)c4)ncnc3[nH]2)ccc1OCc1ccccc1,0.5 to 1000
9,COC(=O)Nc1ccc(-c2cc3c(Nc4cccc(Cl)c4)ncnc3[nH]2)cc1,0.5 to 1000
10,CC(C)S(=O)(=O)Nc1ccc(-c2cc3c(Nc4cccc(Cl)c4)ncnc3[nH]2)cc1,0.5 to 1000
11,O=S(=O)(Nc1ccc(-c2cc3c(Nc4cccc(Cl)c4)ncnc3[nH]2)cc1)c1ccccc1,0.5 to 1000
12,CN(C)C=Nc1cccc(-c2cc3c(Nc4cccc(Cl)c4)ncnc3[nH]2)c1,0.5 to 1000
13,COc1cc(-c2cc3c(Nc4cccc(C)c4)ncnc3[nH]2)ccc1OCc1ccccc1,0.5 to 1000
14,COc1cc(-c2cc3c(Nc4cccc(Cl)c4)ncnc3[nH]2)ccc1O,0.5 to 1000
15,CNC(=S)Nc1cccc(-c2cc3c(N[C@H](C)c4ccccc4)ncnc3[nH]2)c1,0.5 to 1000
16,CCNC(=O)Nc1ccc(-c2cc3c(N[C@H](C)c4ccccc4)ncnc3[nH]2)cc1,0.5 to 1000
17,O=C(Nc1ccccc1)Nc1cccc(-c2cc3c(Nc4cccc(Cl)c4)ncnc3[nH]2)c1,0.5 to 1000
18,COc1cc(-c2cc3c(Nc4cccc(C)c4)ncnc3[nH]2)ccc1O,0.5 to 1000
19,NC(=S)c1cc2c(Nc3cccc(Cl)c3)ncnc2[nH]1,0.5 to 1000
20,CC(C)S(=O)(=O)Nc1cccc(-c2cc3c(Nc4cccc(Cl)c4)ncnc3[nH]2)c1,0.5 to 1000
21,O=C(c1cc2c(Nc3cccc(Cl)c3)ncnc2[nH]1)N1CCOCC1,0.5 to 1000
22,COc1ccc(-c2cc3c(N[C@H](C)c4ccccc4)ncnc3[nH]2)cc1,0.5 to 1000

row,Structure (SMILES),IC50 [nM]
1,CCS(=O)(=O)Nc1ccc(-c2cc3c(Nc4cccc(Cl)c4)ncnc3[nH]2)cc1,0.5 to 1000
2,CC(C)C(=Nc1ccc(-c2cc3c(Nc4cccc(Cl)c4)ncnc3[nH]2)cc1)N(C)C,0.5 to 1000
3,Clc1cccc(Nc2ncnc3[nH]c(-c4cccc(N=CN5CCOCC5)c4)cc23)c1,0.5 to 1000
4,CCS(=O)(=O)Nc1cccc(-c2cc3c(N[C@H](C)c4ccccc4)ncnc3[nH]2)c1,0.5 to 1000
5,CN1CCN(C=Nc2ccc(-c3cc4c(Nc5cccc(Cl)c5)ncnc4[nH]3)cc2)CC1,0.5 to 1000
6,CC(C)S(=O)(=O)Nc1ccc(-c2cc3c(N[C@H](C)c4ccccc4)ncnc3[nH]2)cc1,0.5 to 1000
7,CC(C)OC(=O)Nc1ccc(-c2cc3c(Nc4cccc(Cl)c4)ncnc3[nH]2)cc1,0.5 to 1000
8,C[C@@H](Nc1ncnc2[nH]c(-c3cccc(N=CN(C)C)c3)cc12)c1ccccc1,0.5 to 1000
9,CS(=O)(=O)Nc1cccc(-c2cc3c(Nc4cccc(Cl)c4)ncnc3[nH]2)c1,0.5 to 1000
10,CCN(C=Nc1ccc(-c2cc3c(Nc4cccc(Cl)c4)ncnc3[nH]2)cc1)CC,0.5 to 1000
11,CN1CCN(Cc2cc3c(Nc4cccc(Cl)c4)ncnc3[nH]2)CC1,0.5 to 1000
12,O=C(Nc1ccc(-c2cc3c(Nc4cccc(Cl)c4)ncnc3[nH]2)cc1)c1cccs1,0.5 to 1000
13,CC(C)COC(=O)Nc1ccc(-c2cc3c(Nc4cccc(Cl)c4)ncnc3[nH]2)cc1,0.5 to 1000
14,Oc1ccc(CNCc2cc3c(Nc4cccc(Cl)c4)ncnc3[nH]2)cc1,0.5 to 1000
15,Clc1cccc(Nc2ncnc3[nH]c(-c4ccc(N=CN5CCOCC5)cc4)cc23)c1,0.5 to 1000
16,CN1CCN(C(=O)c2cc3c(Nc4cccc(Cl)c4)ncnc3[nH]2)CC1,0.5 to 1000
17,CCNC(=O)Nc1cccc(-c2cc3c(Nc4cccc(Cl)c4)ncnc3[nH]2)c1,0.5 to 1000
18,Clc1cccc(Nc2ncnc3[nH]c(CN4CCOCC4)cc23)c1,0.5 to 1000
19,Clc1cccc(Nc2ncnc3[nH]c(-c4nccs4)cc23)c1,0.5 to 1000
20,COc1cc(-c2cc3c(Nc4ccccc4)ncnc3[nH]2)ccc1O,0.5 to 1000
21,O=C(Nc1ccc(-c2cc3c(Nc4cccc(Cl)c4)ncnc3[nH]2)cc1)c1ccco1,0.5 to 1000
22,CNC(=S)Nc1cccc(-c2cc3c(Nc4cccc(Cl)c4)ncnc3[nH]2)c1,0.5 to 1000

row,Structure (SMILES),IC50 [nM]
1,CC(C)S(=O)(=O)Nc1cccc(-c2cc3c(N[C@H](C)c4ccccc4)ncnc3[nH]2)c1,0.5 to 1000
2,OCc1ccc(-c2cc3c(Nc4cccc(Cl)c4)ncnc3[nH]2)cc1,0.5 to 1000
3,Clc1cccc(Nc2ncnc3[nH]c(-c4nnn[nH]4)cc23)c1,0.5 to 1000
4,C[C@@H](Nc1ncnc2[nH]c(-c3cccc(NS(C)(=O)=O)c3)cc12)c1ccccc1,0.5 to 1000
5,Cn1nnc(-c2cc3c(Nc4cccc(Cl)c4)ncnc3[nH]2)n1.Cn1nnnc1-c1cc2c(Nc3cccc(Cl)c3)ncnc2[nH]1,0.5 to 1000
6,CCc1csc(-c2cc3c(Nc4cccc(Cl)c4)ncnc3[nH]2)n1,0.5 to 1000
7,CCNC(=O)Nc1ccc(-c2cc3c(Nc4cccc(Cl)c4)ncnc3[nH]2)cc1,0.5 to 1000
8,CCNC(=S)Nc1ccc(-c2cc3c(Nc4cccc(Cl)c4)ncnc3[nH]2)cc1,0.5 to 1000
9,CS(=O)(=O)Nc1ccc(-c2cc3c(Nc4cccc(Cl)c4)ncnc3[nH]2)cc1,0.5 to 1000
10,COc1ccc(CNCc2cc3c(Nc4cccc(Cl)c4)ncnc3[nH]2)cc1,0.5 to 1000
11,C[C@@H](Nc1ncnc2[nH]c(-c3ccc(N=CN(C)C)cc3)cc12)c1ccccc1,0.5 to 1000
12,CCOC(=O)Nc1ccc(-c2cc3c(Nc4cccc(Cl)c4)ncnc3[nH]2)cc1,0.5 to 1000
13,ON=Cc1cc2c(Nc3cccc(Cl)c3)ncnc2[nH]1,0.5 to 1000
14,CNC(=S)Nc1ccc(-c2cc3c(N[C@H](C)c4ccccc4)ncnc3[nH]2)cc1,0.5 to 1000
15,Cc1nc(-c2cc3c(Nc4cccc(Cl)c4)ncnc3[nH]2)sc1C,0.5 to 1000
16,CCS(=O)(=O)Nc1ccc(-c2cc3c(N[C@H](C)c4ccccc4)ncnc3[nH]2)cc1,0.5 to 1000
17,Clc1cccc(Nc2ncnc3[nH]c(-c4ccc(N=CN5CCCCC5)cc4)cc23)c1,0.5 to 1000
18,CCS(=O)(=O)Nc1cccc(-c2cc3c(Nc4cccc(Cl)c4)ncnc3[nH]2)c1,0.5 to 1000
19,CON=Cc1cc2c(Nc3cccc(Cl)c3)ncnc2[nH]1,0.5 to 1000
20,CCNC(=O)Nc1cccc(-c2cc3c(N[C@H](C)c4ccccc4)ncnc3[nH]2)c1,0.5 to 1000
21,O=C(c1ccc(-c2cc3c(Nc4cccc(Cl)c4)ncnc3[nH]2)cc1)N1CCOCC1,0.5 to 1000
22,CCN(C=Nc1cccc(-c2cc3c(Nc4cccc(Cl)c4)ncnc3[nH]2)c1)CC,0.5 to 1000

# Biological target: EGFR (human) (UniProt P00533)
# Sequence (P00533 whole entry, looked up): as above
# Settings: a431
row,Structure (SMILES),IC100
1,CN1CCN(C(=O)c2cc3c(Nc4cccc(Cl)c4)ncnc3[nH]2)CC1,Between 0.001 to 1.000 uM
